These results are taken from ChEMBL document CHEMBL1201862, “PubChem BioAssay data set” (2004).

Test systems include UACC-257; PC-3; A498; DU-145; SNB-19; NCI-H522; SW-620; T47D; HL-60; TK-10; MCF7; HOP-62; LOX IMVI; IGROV-1; MDA-MB-435; U-251; OVCAR-8; MDA-N; NCI/ADR-RES; NCI-H226.
What all share (test): DTP human tumour cell line panel, 48 h

Molecules are shown by their SMILES.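 Five compound concentrations were applied to cells in 96-well plates for 48 hours; endpoints were derived by simple linear interpolation of the resulting dose-response curve. At the GI50, growth is halved.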 The source made the active and inactive calls. Cut-off read from the data, not from the text of the source: active = GI50 up to about 1.1 µM and inactive = higher.

In the case of `C=C(C)C12OC1[C@@]1(C)C(=CC2=O)CCC(O)[C@@H]1C` (stereo not given in full), the GI50 (as a rule, the concentration giving 50% growth inhibition) in the assay on UACC-257 is 3.34 µM (inactive); in the assay with PC-3, 2.65 µM (inactive); in the assay on A498, 5.19 µM (inactive); in the assay with DU-145, 1.05 µM (active); with SNB-19, 1.69 µM (inactive); in the assay on NCI-H522 it was 0.782 µM (active). Also, the GI50 in the assay with SW-620 is 2.39 µM (inactive); in the assay with T47D it was 3.16 µM (inactive); in the assay on HL-60, 1.16 µM (inactive); in the assay on TK-10, 3.73 µM (inactive); with MCF7, 3.53 µM (inactive); in the assay with HOP-62 it was 1.4 µM (inactive). For the same compound, the GI50 in the assay with LOX IMVI is 2.67 µM (inactive); with IGROV-1, 0.891 µM (active); in the assay on MDA-MB-435, 3.29 µM (inactive); in the assay with U-251, 1.14 µM (inactive); in the assay on OVCAR-8 it was 1.45 µM (inactive); in the assay with MDA-N, 2.68 µM (inactive).

With `COc1cc(OC)cc(-n2c(N)c(C#N)c3ccc([N+](=O)[O-])cc3c2=O)c1`, the GI50 is 35 µM (inactive) in the assay with UACC-257; 41.3 µM (inactive) in the assay with PC-3; 20 µM (inactive) with A498; 20.8 µM (inactive) with DU-145; 17.5 µM (inactive) with SNB-19; > 100 µM (inactive) in the assay with SW-620. The GI50 in the assay on T47D was 33.7 µM (inactive); with NCI/ADR-RES it was 41.8 µM (inactive); in the assay with TK-10, 34.2 µM (inactive); in the assay on LOX IMVI, > 100 µM (inactive); with MDA-MB-435 it was 63.2 µM (inactive); with NCI-H226, 23.9 µM (inactive). The GI50 in the assay with U-251 is 22.9 µM (inactive); with OVCAR-8, 18.7 µM (inactive); with MDA-N, 80 µM (inactive).

Turning to `CC(=O)N1C(C(=O)NC2CCCCC2)CSC1c1ccccc1` (stereo not given), the GI50 in the assay on UACC-257, in the assay with PC-3, in the assay on A498, in the assay with DU-145, in the assay with SNB-19 and in the assay with NCI-H522 was > 100 µM (inactive) throughout. The GI50 in the assay on SW-620, in the assay with HL-60, in the assay with NCI/ADR-RES, in the assay with TK-10, with MCF7 and in the assay with HOP-62 was > 100 µM (inactive) each time. For the same compound, the GI50 in the assay with LOX IMVI was > 100 µM (inactive); with IGROV-1 it was > 100 µM (inactive); in the assay with MDA-MB-435, > 100 µM (inactive); in the assay on NCI-H226 it was 51.6 µM (inactive); in the assay on U-251, > 100 µM (inactive); in the assay with OVCAR-8 it was > 100 µM (inactive). Besides, the GI50 in the assay on MDA-N is > 100 µM (inactive).

Regarding `SC1=NC2=C(CSC/C2=C\c2ccc(Cl)cc2)C(c2ccc(Cl)cc2)N1` (stereo not given), the GI50 with UACC-257 is 32 µM (inactive); with PC-3 it was 31.3 µM (inactive); in the assay on DU-145, 39.4 µM (inactive); in the assay with SNB-19, 44.3 µM (inactive); in the assay on NCI-H522, 42.8 µM (inactive); in the assay on SW-620 it was 41.3 µM (inactive). In addition, the GI50 in the assay with T47D is 28.6 µM (inactive); in the assay on HL-60, 24.7 µM (inactive); in the assay with NCI/ADR-RES it was 38.1 µM (inactive); with TK-10, 36.6 µM (inactive); in the assay with MCF7 it was 30.8 µM (inactive); in the assay with HOP-62, 36 µM (inactive). Moreover, the GI50 in the assay with LOX IMVI is 27 µM (inactive); in the assay with IGROV-1, 51.8 µM (inactive); in the assay on U-251, 36.8 µM (inactive); in the assay on OVCAR-8, 39.2 µM (inactive); with MDA-N it was 33.5 µM (inactive).

`O=C(N/S(=N/S(=O)(=O)c1ccc(Br)cc1)C(Cl)(Cl)Cl)c1ccccc1` (stereo not given): the GI50 in the assay on UACC-257, with PC-3, in the assay with A498, in the assay on DU-145, in the assay on SNB-19 and with SW-620 was > 100 µM (inactive) throughout. Besides, the GI50 in the assay on T47D, in the assay with NCI/ADR-RES, in the assay with TK-10, in the assay with MCF7, in the assay with HOP-62 and in the assay with LOX IMVI was > 100 µM (inactive) in each case. Moreover, the GI50 in the assay on IGROV-1, with MDA-MB-435, in the assay on NCI-H226, with U-251, in the assay on OVCAR-8 and in the assay with MDA-N was > 100 µM (inactive) in each case.

As to `O=c1c(-c2ccccc2)nnc2n(Cc3ccccc3)c3ccccc3n12`, the GI50 in the assay on UACC-257 was > 100 µM (inactive); with A498 it was > 100 µM (inactive); with DU-145, > 100 µM (inactive); with SNB-19, > 100 µM (inactive); in the assay on NCI-H522 it was 26.7 µM (inactive); with SW-620, > 100 µM (inactive). In addition, the GI50 in the assay on T47D, in the assay on HL-60, in the assay on NCI/ADR-RES, in the assay on TK-10, with MCF7 and in the assay on LOX IMVI was > 100 µM (inactive) each time. Besides, the GI50 with IGROV-1 was > 100 µM (inactive); in the assay on MDA-MB-435, > 100 µM (inactive); with NCI-H226 it was 22.5 µM (inactive); with U-251 it was > 100 µM (inactive); with OVCAR-8, > 100 µM (inactive); with MDA-N, > 100 µM (inactive).

Turning to `CC1=C(C(=O)NNC(=O)CC#N)CC(C(=O)NNC(=O)CC#N)=C(C)N1`, the GI50 in the assay with UACC-257 is > 100 µM (inactive); in the assay on A498, > 100 µM (inactive); with DU-145 it was > 100 µM (inactive); with SNB-19, > 100 µM (inactive); in the assay on SW-620, > 100 µM (inactive); in the assay on T47D it was 93.3 µM (inactive). The GI50 is 82.6 µM (inactive) in the assay on HL-60; > 100 µM (inactive) in the assay with NCI/ADR-RES; > 100 µM (inactive) with TK-10; > 100 µM (inactive) in the assay with MCF7; > 100 µM (inactive) in the assay on HOP-62; > 100 µM (inactive) in the assay on LOX IMVI. The GI50 with IGROV-1, in the assay with MDA-MB-435, in the assay with NCI-H226, in the assay on U-251, with OVCAR-8 and in the assay on MDA-N was > 100 µM (inactive) each time.

On to `COC1C(OC(N)=O)C(O)C(Oc2ccc3c(O)c(NC(=O)c4ccc(O)c(CC=C(C)C)c4)c(=O)oc3c2C)OC1(C)C` (stereo not given), for which the GI50 in the assay with UACC-257, in the assay with PC-3, with A498, in the assay with DU-145, in the assay with SNB-19 and in the assay with SW-620 was > 100 µM (inactive) throughout. Further, the GI50 in the assay on T47D is > 100 µM (inactive); in the assay with NCI/ADR-RES, > 100 µM (inactive); in the assay on TK-10, > 10 µM (inactive); with MCF7 it was > 100 µM (inactive); with HOP-62, > 100 µM (inactive); in the assay on IGROV-1, > 100 µM (inactive). The GI50 was 71.8 µM (inactive) in the assay with MDA-MB-435, 99.5 µM (inactive) in the assay on U-251, > 100 µM (inactive) in the assay with OVCAR-8 and > 100 µM (inactive) in the assay on MDA-N.

As to `CCOP(=O)(O)C(C)(C)NC`, the GI50 in the assay with UACC-257, in the assay with PC-3, in the assay with A498, with DU-145, in the assay on SNB-19 and in the assay on NCI-H522 was > 100 µM (inactive) throughout. The GI50 with SW-620, in the assay on T47D, in the assay with HL-60, with NCI/ADR-RES, in the assay with TK-10 and with HOP-62 was > 100 µM (inactive) throughout. Besides, the GI50 with LOX IMVI, in the assay on IGROV-1, in the assay with MDA-MB-435, in the assay on NCI-H226, in the assay with U-251 and with OVCAR-8 was > 100 µM (inactive) in each case. In addition, the GI50 in the assay on MDA-N is > 100 µM (inactive).

Regarding `CC1=C(/C=C/C(=O)O)C(C)(C)CCC1`, the GI50 in the assay on UACC-257, in the assay on PC-3, in the assay with A498, with DU-145, with SNB-19 and in the assay with NCI-H522 was > 100 µM (inactive) each time. The GI50 with SW-620, with HL-60, in the assay with NCI/ADR-RES, in the assay with TK-10, in the assay with MCF7 and in the assay with HOP-62 was > 100 µM (inactive) each time. For the same compound, the GI50 in the assay with LOX IMVI, in the assay on IGROV-1, in the assay on MDA-MB-435, with NCI-H226, in the assay on U-251 and in the assay with OVCAR-8 was > 100 µM (inactive) throughout. The GI50 in the assay with MDA-N is > 100 µM (inactive).

`OCCOCCN1CCN(CCCN2c3ccccc3Sc3ccc(C(F)(F)F)cc32)CC1`: the GI50 in the assay with UACC-257 is 5.15 µM (inactive); in the assay on PC-3 it was 15.6 µM (inactive); in the assay with A498, 10.5 µM (inactive); in the assay on DU-145, 14.2 µM (inactive); with SNB-19 it was 14.4 µM (inactive); in the assay on NCI-H522 it was 14.7 µM (inactive). For the same compound, the GI50 with SW-620 is 15.5 µM (inactive); with T47D it was 0.955 µM (active); in the assay on TK-10, 11.7 µM (inactive); in the assay with MCF7, 13.1 µM (inactive); in the assay with HOP-62 it was 17.6 µM (inactive); with LOX IMVI, 3.97 µM (inactive). In addition, the GI50 in the assay with IGROV-1 is 9.84 µM (inactive); with MDA-MB-435, 11.1 µM (inactive); in the assay on NCI-H226, 16.4 µM (inactive); in the assay on U-251 it was 12.3 µM (inactive); in the assay on OVCAR-8, 15.2 µM (inactive); in the assay with MDA-N, 13 µM (inactive).
